Drawing on publication PMC10287183 (Antiviral Research, 2023), this text covers Z-Phe-Arg-AMC substrate degradation, EC90 and CC50 for three compounds.

The test system of data set [1] is CatB and CatL. Kind of data set: Z-Phe-Arg-AMC substrate degradation in whole cell lysates with CA-074. Type of data set: biochemical. To be noted: CA-074 10 μM.
The subject of data set [2] is SARS-CoV-2 Omicron. The experiment in a line: microbe, parasite or virus in culture. Type of data set: cell-based. Conditions: Severe acute respiratory syndrome coronavirus 2, read-out: EC90 (mean ± SD).
Data set [3] can be described thus: in vitro. Conditions: human.
The nature of data set [4]: in vitro. Conditions: human. This is another data set of the same source.

`CCCNC(=O)[C@H]1O[C@@H]1C(=O)N[C@H](C(=O)N1CCC[C@H]1C(=O)O)[C@@H](C)CC` [CA-074]: the Z-Phe-Arg-AMC substrate degradation result is reported as “almost completely abolished” in data set [1] (Calu-3 whole cell lysate), “almost completely abolished” in data set [1] (Huh7-hACE2 whole cell lysate) and “did not reduce substrate degradation” in data set [1] (Vero E6 whole cell lysate).

As a reminder, the EC90 is the concentration at which the effect reaches the 90% level. Consider `CCN(CCO)CCCC(C)Nc1ccnc2cc(Cl)ccc12` (stereo not shown) [Hydroxychloroquin, Hydroxychloroquine], for which the EC90 in data set [2] is 7.7 ± 1.2 µM.

For the compound `O=[N+]([O-])c1ccc(O)c2ncccc12` [Nitroxoline, nitroxoline], in data set [2], the EC90 turned out to be 6.4 ± 0.6 µM. The CC50 in data set [3] and in data set [4] was more than 100 µM in each case.
